Test results taken from ChEMBL document CHEMBL3045198, “Insecticidal Activity and Selective Toxicity of Chloronicotinyl Compounds Having Thiomethyl Groups” (J Pestic Sci, 2000).
Converted amounts (≈) assume the structure as drawn.

Tests used:
[1] = Displacement of [3H]alpha-bungarotoxin from nicotinic acetylcholine receptor in Apis mellifera (honey bee) head membrane
[2] = Acute toxicity in po dosed Mus musculus ICR (mouse) assessed as mortality measured after 14 days; format: organism-based; conditions: in vivo
Laodelphax striatellus [3] = assay: Insecticidal activity against adult Laodelphax striatella (small brown planthopper) at 0.0005 ug topically applied measured after 24 hr; format: functional
Laodelphax striatellus [4] = assay: Insecticidal activity against adult Laodelphax striatella (small brown planthopper) at 0.0005 ug topically applied measured after 3 hr; format: functional
Myzus persicae = assay: Insecticidal activity against larvae of Myzus persicae (green peach aphid) infested eggplant petiole treated with compound solution measured after 5 days; format: functional; conditions: 120 h
Laodelphax striatellus [5] = assay: Insecticidal activity against larvae of Laodelphax striatella (small brown planthopper) fed with compound solution dipped rice seedling measured after 5 days by test tube method; format: functional; conditions: 120 h
Laodelphax striatellus [6] = assay: Insecticidal activity against Laodelphax striatella (small brown planthopper) at 3.1 ppm in presence of diethyl maleate; format: functional
Laodelphax striatellus [7] = assay: Insecticidal activity against Laodelphax striatella (small brown planthopper) at 12.5 ppm in presence of diethyl maleate; format: functional
Laodelphax striatellus [8] = assay: Insecticidal activity against Laodelphax striatella (small brown planthopper) at 3.1 ppm in presence of triphenyl phosphate; format: functional
Laodelphax striatellus [9] = assay: Insecticidal activity against Laodelphax striatella (small brown planthopper) at 12.5 ppm in presence of triphenyl phosphate; format: functional
Laodelphax striatellus [10] = assay: Insecticidal activity against Laodelphax striatella (small brown planthopper) at 3.1 ppm in presence of piperonyl butoxide; format: functional
Laodelphax striatellus [11] = assay: Insecticidal activity against Laodelphax striatella (small brown planthopper) at 12.5 ppm in presence of piperonyl butoxide; format: functional
Laodelphax striatellus [12] = assay: Insecticidal activity against Laodelphax striatella (small brown planthopper) at 12.5 ppm; format: functional
Laodelphax striatellus [13] = assay: Insecticidal activity against Laodelphax striatella (small brown planthopper) at 3.1 ppm; format: functional
Laodelphax striatellus [14] = assay: Insecticidal activity against Laodelphax striatella (small brown planthopper) at 0.0005 ug topically applied measured after 72 hr; format: functional
Laodelphax striatellus [15] = assay: Insecticidal activity against Laodelphax striatella (small brown planthopper) at 0.0005 ug topically applied measured after 48 hr; format: functional

| Compound | LC50 (Myzus persicae) | LC50 (Laodelphax striatellus [5]) | further results |
| --- | --- | --- | --- |
| O=[N+]([O-])/C=C1\NCCN1Cc1ccc(Cl)nc1 | 0.09 µg/mL (≈ 0.353 µM) | 0.3 µg/mL (≈ 1.18 µM) | IC50 [1]: 0.11 µM; LD50 at 336 h [2]: < 30 mg/kg; mortality (Laodelphax striatellus [3]): 100%; mortality (Laodelphax striatellus [4]): 70% |
| C[Si](C)(CSC/C(=C1/NCCN1Cc1ccc(Cl)nc1)[N+](=O)[O-])c1ccccc1 | 0.25 µg/mL (≈ 0.557 µM) | 0.1 µg/mL (≈ 0.223 µM) | – |
| O=C(SC/C(=C1/NCCN1Cc1ccc(Cl)nc1)[N+](=O)[O-])c1ccccc1 | 1.2 µg/mL (≈ 2.96 µM) | 6.3 µg/mL (≈ 15.6 µM) | – |
| CC(SC/C(=C1/NCCN1Cc1ccc(Cl)nc1)[N+](=O)[O-])c1ccc(Cl)cc1 (stereo not drawn) | 0.2 µg/mL (≈ 0.455 µM) | 1 µg/mL (≈ 2.28 µM) | – |
| O=[N+]([O-])/C(CSCc1ccc(Cl)cc1)=C1\NCCN1Cc1ccc(Cl)nc1 | 0.8 µg/mL (≈ 1.88 µM) | 0.14 µg/mL (≈ 0.329 µM) | – |
| O=[N+]([O-])/C(CSCc1ccccc1)=C1\NCCN1Cc1ccc(Cl)nc1 | 0.11 µg/mL (≈ 0.281 µM) | 0.36 µg/mL (≈ 0.921 µM) | – |
| CCOC(=O)CSC/C(=C1/NCCN1Cc1ccc(Cl)nc1)[N+](=O)[O-] | 0.1 µg/mL (≈ 0.258 µM) | 0.3 µg/mL (≈ 0.775 µM) | – |
| O=[N+]([O-])/C(CSc1ccccc1)=C1\NCCN1Cc1ccc(Cl)nc1 | 0.34 µg/mL (≈ 0.902 µM) | 0.11 µg/mL (≈ 0.292 µM) | – |
| O=[N+]([O-])/C(CSCCCF)=C1\NCCN1Cc1ccc(Cl)nc1 | 0.2 µg/mL (≈ 0.554 µM) | 0.14 µg/mL (≈ 0.388 µM) | – |
| CC#CCSC/C(=C1/NCCN1Cc1ccc(Cl)nc1)[N+](=O)[O-] | 0.25 µg/mL (≈ 0.709 µM) | 0.3 µg/mL (≈ 0.85 µM) | – |
| C=C(C)CSC/C(=C1/NCCN1Cc1ccc(Cl)nc1)[N+](=O)[O-] | 0.15 µg/mL (≈ 0.423 µM) | < 0.05 µg/mL | – |
| C#CCSC/C(=C1/NCCN1Cc1ccc(Cl)nc1)[N+](=O)[O-] | 0.22 µg/mL (≈ 0.649 µM) | < 0.05 µg/mL | – |
| C=CCSC/C(=C1/NCCN1Cc1ccc(Cl)nc1)[N+](=O)[O-] | 0.1 µg/mL (≈ 0.293 µM) | 0.14 µg/mL (≈ 0.411 µM) | IC50 [1]: 20.4 µM; LD50 at 336 h [2]: > 1000 mg/kg; mortality at 3.1 ppm (Laodelphax striatellus [6]): 30%; mortality at 12.5 ppm (Laodelphax striatellus [7]): 80%; mortality at 3.1 ppm (Laodelphax striatellus [8]): 100%; mortality at 12.5 ppm (Laodelphax striatellus [9]): 100%; mortality at 3.1 ppm (Laodelphax striatellus [10]): 100%; mortality at 12.5 ppm (Laodelphax striatellus [11]): 100%; mortality at 12.5 ppm (Laodelphax striatellus [12]): 100%; mortality at 3.1 ppm (Laodelphax striatellus [13]): 100%; mortality (Laodelphax striatellus [14]): 100%; mortality (Laodelphax striatellus [15]): 80%; mortality (Laodelphax striatellus [3]): 30%; mortality (Laodelphax striatellus [4]): 0% |
| CC(C)(C)SC/C(=C1/NCCN1Cc1ccc(Cl)nc1)[N+](=O)[O-] | 0.2 µg/mL (≈ 0.56 µM) | 0.43 µg/mL (≈ 1.2 µM) | – |
| CCSC/C(=C1/NCCN1Cc1ccc(Cl)nc1)[N+](=O)[O-] | 0.18 µg/mL (≈ 0.547 µM) | 0.41 µg/mL (≈ 1.25 µM) | – |
